Key:
Solubility determination = details: for Sol6: pH 6; for Sol7: pH 7
Outline: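 First, TFA-salt peptide was added to 0.1 M sodium diphosphate (pH 6.4 or 7.0) to 10 mg/ml and shaken 2 h at room temperature. Next, insoluble material was filtered off. Finally, filtrate and control, each 1 mg/ml in 50% acetonitrile, were compared by reversed-phase chromatography.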

[1] = molecular target: T1, Human Neuropeptide Y2 Receptor (Homo sapiens, UniProt P49146); experiment: Radioligand binding competition assay (RLB); details: Table 3, 125I-PYY(1-36) competition; read-out: Ki
T1 construct: purchased CHEMICON HTS066M
T1 sequence (P49146 1-381): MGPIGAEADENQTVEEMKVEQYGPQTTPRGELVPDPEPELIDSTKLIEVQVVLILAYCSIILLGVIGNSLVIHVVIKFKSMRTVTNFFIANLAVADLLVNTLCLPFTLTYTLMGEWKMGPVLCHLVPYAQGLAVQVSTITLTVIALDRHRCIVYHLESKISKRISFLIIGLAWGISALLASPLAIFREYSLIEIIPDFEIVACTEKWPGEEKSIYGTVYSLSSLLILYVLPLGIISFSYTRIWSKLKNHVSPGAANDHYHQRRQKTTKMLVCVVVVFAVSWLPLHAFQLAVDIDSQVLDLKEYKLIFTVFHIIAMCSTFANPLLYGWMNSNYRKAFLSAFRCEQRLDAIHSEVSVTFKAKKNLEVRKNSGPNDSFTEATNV
Outline: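 Filtration binding assay on human Y2 receptor membrane preparation, 0.5 μg protein per well, in 50 mM HEPES pH 7.4 containing 5 mM MgCl2, 1 mM CaCl2 and 0.2% ovalbumin. Plates shake 2 h at room temperature before harvest and scintillation counting.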

Sol6 (Solubility determination) [mg/mL] | Sol7 (Solubility determination) [mg/mL] | Ki [1] [nM] | Compound
9.6 | 9.7 | 8.17 | CC(C)CC(=O)N[C@@H](C)C(=O)N1CCC[C@H]1C(=O)N[C@@H](CCC(=O)O)C(=O)N[C@@H](CCCCNC(=O)CCCCCNC(=O)CC[C@H](NC(=O)CCCCCCCCCCCCCCCCC(=O)O)C(=O)O)C(=O)N1CCC[C@H]1C(=O)N[C@@H](CCC(=O)O)C(=O)N[C@@H](CCC(=O)O)C(=O)N[C@@H](CC(=O)O)C(=O)N[C@@H](C)C(=O)N[C@H](C(=O)N1CCC[C@H]1C(=O)N[C@@H](CCC(=O)O)C(=O)N[C@@H](CCC(=O)O)C(=O)N[C@@H](CC(C)C)C(=O)N[C@@H](CCC(N)=O)C(=O)N[C@@H](CO)C(=O)N[C@@H](Cc1ccc(O)cc1)C(=O)N[C@@H](Cc1ccc(O)cc1)C(=O)N[C@H](C(=O)N[C@@H](CO)C(=O)N[C@@H](CC(C)C)C(=O)N[C@@H](CCCNC(=N)N)C(=O)N[C@@H](Cc1c[nH]cn1)C(=O)N[C@@H](Cc1ccc(O)cc1)C(=O)N[C@@H](Cc1ccc(O)cc1)C(=O)N[C@@H](CC(N)=O)C(=O)N[C@@H](Cc1c[nH]c2ccccc12)C(=O)N[C@@H](CC(C)C)C(=O)N[C@H](C(=O)N[C@@H](CCCNC(=N)N)C(=O)N[C@@H](CCC(N)=O)C(=O)N[C@@H](CCCNC(=N)N)C(=O)N[C@@H](Cc1ccc(O)cc1)C(N)=O)[C@@H](C)O)C(C)C)[C@@H](C)O [Compound 141, N{alpha-4}-(3-methylbutanoyl)-N{epsilon-7}-(6-[(4S)-4-carboxy-4-(17-carboxyheptadecanamido)butanamido]hexanoyl)-[4A,7K,9E,13T,18Q,19S,22V,28Y,30W,31L]-hPYY(4-36)]
9.6 | 8.8 | 4.42 | CC(C)CC(=O)N[C@@H](C)C(=O)N1CCC[C@H]1C(=O)N[C@@H](CCC(=O)O)C(=O)N[C@@H](CCCCNC(=O)CCCCCNC(=O)CC[C@H](NC(=O)CCCCCCCCCCCCCCCCC(=O)O)C(=O)O)C(=O)N1CCC[C@H]1C(=O)N[C@@H](CCC(=O)O)C(=O)N[C@@H](CCC(=O)O)C(=O)N[C@@H](CC(=O)O)C(=O)N[C@@H](C)C(=O)N[C@@H](CCC(=O)O)C(=O)N1CCC[C@H]1C(=O)N[C@@H](CCC(=O)O)C(=O)N[C@@H](CCC(=O)O)C(=O)N[C@@H](CC(C)C)C(=O)N[C@@H](CCC(N)=O)C(=O)N[C@@H](CCCNC(=N)N)C(=O)N[C@@H](Cc1ccc(O)cc1)C(=O)N[C@@H](Cc1ccc(O)cc1)C(=O)N[C@H](C(=O)N[C@@H](CO)C(=O)N[C@@H](CC(C)C)C(=O)N[C@@H](CCCNC(=N)N)C(=O)N[C@@H](Cc1c[nH]cn1)C(=O)N[C@@H](Cc1ccc(O)cc1)C(=O)N[C@@H](Cc1ccc(O)cc1)C(=O)N[C@@H](CC(N)=O)C(=O)N[C@@H](Cc1c[nH]c2ccccc12)C(=O)N[C@@H](CC(C)C)C(=O)N[C@H](C(=O)N[C@@H](CCCNC(=N)N)C(=O)N[C@@H](CCC(N)=O)C(=O)N[C@@H](CCCNC(=N)N)C(=O)N[C@@H](Cc1ccc(O)cc1)C(N)=O)[C@@H](C)O)C(C)C [Compound 126, N{alpha-4}-(3-methylbutanoyl)-N{epsilon-7}-(6-[(4S)-4-carboxy-4-(17-carboxyheptadecanamido)butanamido]hexanoyl)-[4A,7K,9E,13E,18Q,22V,28Y,30W,31L]-hPYY(4-36)]

Reference: patent US12391737B2, “Soluble NPY2 receptor agonists” (Boehringer Ingelheim International GmbH, priority 2020, dated 2025)
